Laboratory results from PubChem BioAssay AID504458 (NMMLSC, 2011).
Activity calls are given as the source filed them. No rule for the calls is given here.

Biological target: General amino acid permease AGP1 (Saccharomyces cerevisiae (strain ATCC 204508 / S288c)) (UniProt P25376)
Experiment: compound effects on AGP1 permease GFP reporter – TOR pathway, S. cerevisiae, flow cytometry, KU SAR set 2, multiplex, dose response (AID 504458)
Conditions: flow cytometry fluorescence, 3 h

Sequence of General amino acid permease AGP1 (Saccharomyces cerevisiae (strain ATCC 204508 / S288c)) (P25376 whole entry, looked up): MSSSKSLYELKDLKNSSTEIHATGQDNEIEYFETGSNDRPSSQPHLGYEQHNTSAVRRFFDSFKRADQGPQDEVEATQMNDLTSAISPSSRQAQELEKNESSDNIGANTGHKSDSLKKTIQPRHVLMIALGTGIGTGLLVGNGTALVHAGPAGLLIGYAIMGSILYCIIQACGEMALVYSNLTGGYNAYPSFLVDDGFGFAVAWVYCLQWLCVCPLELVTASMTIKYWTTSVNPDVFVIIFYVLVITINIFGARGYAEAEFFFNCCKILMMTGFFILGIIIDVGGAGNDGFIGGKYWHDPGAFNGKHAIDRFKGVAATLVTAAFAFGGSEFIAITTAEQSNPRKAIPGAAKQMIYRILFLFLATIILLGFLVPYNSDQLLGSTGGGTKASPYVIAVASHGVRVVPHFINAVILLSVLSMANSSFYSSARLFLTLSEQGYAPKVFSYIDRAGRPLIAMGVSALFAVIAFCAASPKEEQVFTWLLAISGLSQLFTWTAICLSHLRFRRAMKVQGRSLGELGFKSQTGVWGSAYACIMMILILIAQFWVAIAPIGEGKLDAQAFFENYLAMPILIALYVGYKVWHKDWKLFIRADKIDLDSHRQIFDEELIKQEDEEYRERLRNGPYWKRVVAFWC

Structure (SMILES) | EC50
COc1ccccc1-c1cc(Nc2cc(C)[nH]n2)nc(NCc2ccccc2)n1 | inactive
CCNc1nc(N)c([N+](=O)[O-])c(Nc2cccc(Cl)c2)n1 | 9.69 µM
CNc1nc(N)c([N+](=O)[O-])c(Nc2cccc(Oc3ccccc3)c2)n1 | inactive
CNc1nc(N)cc(Nc2cccc(Cl)c2)n1 | inactive
CNc1nc(N)cc(Nc2ccccc2F)n1 | inactive
CCNc1nc(NC2CCCCC2)c([N+](=O)[O-])c(N2CCOCC2)n1 | inactive
CNc1nc(N)c([N+](=O)[O-])c(Nc2ccccc2Br)n1 | inactive
Cc1cc(Nc2cc(-c3ccccc3)nc(NCc3ccccc3)n2)n[nH]1 | inactive
CCOC(=O)c1c(N)nc(NC)nc1Nc1cccc(F)c1 | inactive
CNc1nc(N)c(C(=O)c2ccc(C)c(C)c2)c(Nc2cccc(Cl)c2)n1 | inactive

The remaining lines, values ahead:

EC50 | Structure (SMILES)
inactive | CNc1nc(NC)c([N+](=O)[O-])c(Nc2cccc(Cl)c2)n1
inactive | COC(=O)c1cccc(-c2cc(Nc3cc(C)[nH]n3)nc(NCc3ccccc3)n2)c1
inactive | CNc1nc(N)cc(Oc2cccc(Cl)c2)n1
inactive | Cc1cc(Nc2cc(Nc3ccccc3)nc(NCc3ccccc3)n2)n[nH]1
inactive | O=[N+]([O-])c1c(NC2CCCCC2)nc(NCc2ccccc2)nc1N1CCOCC1
